Tests used:
[1] = system: splenic B cells; assay: Mitogenesis of spleen B cells (lipopolysaccharide, 3H-thymidine) from LP-BM5-infected mice given SP aerosol; type: in vivo, C57BL6 mice; conditions: LP-BM5 virus + SP aerosol 1 μM
Method: (§1) C57BL6 mice, average weight of 25-30 grams, were infected with the LP-BM5 murine leukemia retrovirus to simulate the human AIDS virus. […] The mice were divided into two groups; LP-BM5 virus only and LP-BM5 virus +substance P aerosol therapy at 1 μM concentration. The mice were killed at 4 and 8 weeks post-inoculation.
The proliferation of splenic B and T cells induced by mitogens was determined by incorporation of radioactive thymidine. Splenocytes in 0.1 ml of cell culture medium (1×10^7 cells/ml) were cultured in 96-well flat-bottom cultured plates with ConA and lipopolysaccharide, 5 micrograms/ml). The cells were incubated at 37° C., 5% CO2 incubator for 72 hours for ConA-induced T cell proliferation, and then pulsed with ^3 H-thymidine (1 microCurie/well). After 4 hours for radioactive thymidine uptake, the cells were harvested by a cell sample harvester. Radioactivity was determined by a liquid scintillation counter (Tri-Carb, 2200CA). The T and B cell mitogenesis values were recorded as counts per min in 1×10^7 cells/ml.

[2] = system: LP-BM5 murine leukemia retrovirus; assay: Mouse AIDS model, spleen changes and total cell numbers; type: in vivo, C57BL6 mice
Method: as §1

[3] = system: lymphocyte subpopulations; assay: Flow cytometric analyses (FACS) of immune organs, JP-8 exposed mice; type: in vivo, C57B16 mice
Method: At 24 hours after the last exposure, the animals were sacrificed and the effects of exposure on the immune system examined. Immune organs (spleen, thymus, blood, lymph nodes and bone marrow) were recovered and analyzed for effects on organ weight, total cell numbers, immune cell populations (by differentials), and lymphocyte subpopulations (by flow cytometry). Assays were also performed to examine the effects of exposure on immune function. […] Similar effects on immune cell subpopulations were also observed in lymph nodes. In the thymus it appeared that the immature CD4^+ CD8^+ cells were differentially lost due to exposure. […] However, these effects are prevented or ameliorated by treatment of the animals with Substance P.
Flow cytometric analyses (FACS): One- and two-color FACS analyses are performed using a Becton-Dickinson FACStar Plus flow cytometer. Cells are stained with the indicated monoclonal antibodies according to standard procedures (Harris et al., id). Cells alone and cells reacted with conjugated isotype control, irrelevant mAbs are used as controls. Data is presented as the percentage of cells staining positive for each individual mAb.

[4] = 4 weeks after infection, mean (SEM)
[5] = JP-8 dose 0 + SP or antagonist aerosol
[6] = JP-8 dose 1000 + SP or antagonist aerosol
[7] = JP-8 dose 1000 + nSP (1 nanomolar substance P)

Substance P [SP]
Spleen B Cell Mitogenesis, 24 Hours in Culture [1, 4]: 2063 (448) counts per min | Spleen B Cell Mitogenesis, 48 Hours in Culture [1, 4]: 1369 (231) counts per min | Spleen B Cell Mitogenesis, 72 hours in culture [1, 4]: 1642 (158) counts per min | Spleen B Cell Mitogenesis, 72 hours in culture ([1]; 8 weeks post-infection, not significant): 3227 (854) counts per min | changes in the mouse spleens ([2]; LP-BM5 mouse model, SP aerosol therapy): caused significant changes in the mouse spleens | total cell numbers (spleen) versus LP-BM5 group ([2]; SP+Virus Group, 4 weeks after infection): not accompanied by an increase in total cell numbers | BM CD3, cells staining positive [3, 5]: 12% | BM CD4, cells staining positive [3, 5]: 11% | BM CD8, cells staining positive [3, 5]: 1% | BM CD45, cells staining positive [3, 5]: 48% | Spleen CD3, cells staining positive [3, 5]: 42% | Spleen CD4, cells staining positive [3, 5]: 26% | Spleen CD8, cells staining positive [3, 5]: 11% | Spleen CD45, cells staining positive [3, 5]: 23% | Spleen MAC1, cells staining positive [3, 5]: 1% | Thymus CD3, cells staining positive [3, 5]: 10% | Thymus DN, cells staining positive [3, 5]: 7% | Thymus DP, cells staining positive [3, 5]: 84% | Thymus SP4, cells staining positive [3, 5]: 6% | Thymus SP8, cells staining positive [3, 5]: 2% | BM CD3, cells staining positive ([3]; JP-8 dose 250 + SP aerosol): 13% | BM CD4, cells staining positive ([3]; JP-8 dose 250 + SP aerosol): 10% | BM CD8, cells staining positive ([3]; JP-8 dose 250 + SP aerosol): 3% | BM CD45, cells staining positive ([3]; JP-8 dose 250 + SP aerosol): 48% | BM MAC1, cells staining positive ([3]; JP-8 dose 250 + SP aerosol): 10% | LN CD3, cells staining positive ([3]; JP-8 dose 250 + SP aerosol): 85% | LN CD4, cells staining positive ([3]; JP-8 dose 250 + SP aerosol): 48% | LN CD8, cells staining positive ([3]; JP-8 dose 250 + SP aerosol): 12% | LN CD45, cells staining positive ([3]; JP-8 dose 250 + SP aerosol): 13% | LN MAC1, cells staining positive ([3]; JP-8 dose 250 + SP aerosol): 1% | PBL CD3, cells staining positive ([3]; JP-8 dose 250 + SP aerosol): 59% | PBL CD4, cells staining positive ([3]; JP-8 dose 250 + SP aerosol): 15% | PBL CD8, cells staining positive ([3]; JP-8 dose 250 + SP aerosol): 6% | PBL CD45, cells staining positive ([3]; JP-8 dose 250 + SP aerosol): 16% | PBL MAC1, cells staining positive ([3]; JP-8 dose 250 + SP aerosol): 1% | Spleen CD3, cells staining positive ([3]; JP-8 dose 250 + SP aerosol): 62% | Spleen CD4, cells staining positive ([3]; JP-8 dose 250 + SP aerosol): 27% | Spleen CD8, cells staining positive ([3]; JP-8 dose 250 + SP aerosol): 3% | Spleen CD45, cells staining positive ([3]; JP-8 dose 250 + SP aerosol): 21% | Spleen MAC1, cells staining positive ([3]; JP-8 dose 250 + SP aerosol): 1% | Thymus CD3, cells staining positive ([3]; JP-8 dose 250 + SP aerosol): 24% | Thymus DN, cells staining positive ([3]; JP-8 dose 250 + SP aerosol): 5% | Thymus DP, cells staining positive ([3]; JP-8 dose 250 + SP aerosol): 68% | Thymus SP4, cells staining positive ([3]; JP-8 dose 250 + SP aerosol): 22% | Thymus SP8, cells staining positive ([3]; JP-8 dose 250 + SP aerosol): 5% | BM CD3, cells staining positive [3, 6]: 14% | BM CD4, cells staining positive [3, 6]: 9% | BM CD8, cells staining positive [3, 6]: 2% | BM CD45, cells staining positive [3, 6]: 31% | BM MAC1, cells staining positive [3, 6]: 26% | LN CD3, cells staining positive [3, 6]: 86% | LN CD4, cells staining positive [3, 6]: 29% | LN CD8, cells staining positive [3, 6]: 11% | LN CD45, cells staining positive [3, 6]: 22% | LN MAC1, cells staining positive [3, 6]: 0% | PBL CD3, cells staining positive [3, 6]: 61% | PBL CD4, cells staining positive [3, 6]: 23% | PBL CD8, cells staining positive [3, 6]: 10% | PBL CD45, cells staining positive [3, 6]: 22% | PBL MAC1, cells staining positive [3, 6]: 3% | Spleen CD3, cells staining positive [3, 6]: 34% | Spleen CD4, cells staining positive [3, 6]: 18% | Spleen CD8, cells staining positive [3, 6]: 10% | Spleen CD45, cells staining positive [3, 6]: 20% | Spleen MAC1, cells staining positive [3, 6]: 5% | Thymus CD3, cells staining positive [3, 6]: 20% | Thymus DN, cells staining positive [3, 6]: 10% | Thymus DP, cells staining positive [3, 6]: 65% | Thymus SP4, cells staining positive [3, 6]: 16% | Thymus SP8, cells staining positive [3, 6]: 6% | BM CD3, cells staining positive [3, 7]: 13% | BM CD4, cells staining positive [3, 7]: 10% | BM CD8, cells staining positive [3, 7]: 3% | BM CD45, cells staining positive [3, 7]: 43% | BM MAC1, cells staining positive [3, 7]: 16% | LN CD3, cells staining positive [3, 7]: 95% | LN CD4, cells staining positive [3, 7]: 42% | LN CD8, cells staining positive [3, 7]: 25% | LN CD45, cells staining positive [3, 7]: 23% | LN MAC1, cells staining positive [3, 7]: 0% | PBL CD3, cells staining positive [3, 7]: 78% | PBL CD4, cells staining positive [3, 7]: 25% | PBL CD8, cells staining positive [3, 7]: 8% | PBL CD45, cells staining positive [3, 7]: 29% | PBL MAC1, cells staining positive [3, 7]: 2% | Spleen CD3, cells staining positive [3, 7]: 60% | Spleen CD4, cells staining positive [3, 7]: 15% | Spleen CD8, cells staining positive [3, 7]: 5% | Spleen CD45, cells staining positive [3, 7]: 41% | Spleen MAC1, cells staining positive [3, 7]: 1% | Thymus CD3, cells staining positive [3, 7]: 25% | Thymus DN, cells staining positive [3, 7]: 7% | Thymus DP, cells staining positive [3, 7]: 69% | Thymus SP4, cells staining positive [3, 7]: 16% | Thymus SP8, cells staining positive [3, 7]: 7% | BM CD3, cells staining positive ([3]; JP-8 dose 2500 + SP aerosol): 6% | BM CD4, cells staining positive ([3]; JP-8 dose 2500 + SP aerosol): 3% | BM CD8, cells staining positive ([3]; JP-8 dose 2500 + SP aerosol): 6% | BM CD45, cells staining positive ([3]; JP-8 dose 2500 + SP aerosol): 24% | BM MAC1, cells staining positive ([3]; JP-8 dose 2500 + SP aerosol): 34% | Spleen CD3, cells staining positive ([3]; JP-8 dose 2500 + SP aerosol): 38% | Spleen CD4, cells staining positive ([3]; JP-8 dose 2500 + SP aerosol): 26% | Spleen CD8, cells staining positive ([3]; JP-8 dose 2500 + SP aerosol): 14% | Spleen CD45, cells staining positive ([3]; JP-8 dose 2500 + SP aerosol): 31% | Spleen MAC1, cells staining positive ([3]; JP-8 dose 2500 + SP aerosol): 3% | Thymus CD3, cells staining positive ([3]; JP-8 dose 2500 + SP aerosol): 16% | Thymus DN, cells staining positive ([3]; JP-8 dose 2500 + SP aerosol): 19% | Thymus DP, cells staining positive ([3]; JP-8 dose 2500 + SP aerosol): 64% | Thymus SP4, cells staining positive ([3]; JP-8 dose 2500 + SP aerosol): 15% | Thymus SP8, cells staining positive ([3]; JP-8 dose 2500 + SP aerosol): 5%

From patent publication US5998376A, “Substance P treatment for immunostimulation” (priority 1998, dated 1999)
